Patent US6037447A, “Glycopeptide compounds” (priority 1998, dated 2000)
In brackets after ≈: the same amount, converted by molar mass.

Assays:
[1] = tested on: Staphylococcus aureus X400; assay: Standard broth micro-dilution MIC, Staphylococcus aureus X400; format: cell-based
Method: (§1) The minimal inhibitory concentrations (MICs) were determined using a standard broth micro-dilution assay.

[2] = tested on: Staphylococcus aureus SA119913; assay: Standard broth micro-dilution MIC, Staphylococcus aureus SA119913; format: cell-based
Method: as §1

[3] = tested on: Streptococcus pyogenes C203; assay: Standard broth micro-dilution MIC, Streptococcus pyogenes C203; format: cell-based
Method: as §1

[4] = tested on: Staphylococcus aureus 447; assay: Standard broth micro-dilution MIC, Staphylococcus aureus 447; format: cell-based
Method: as §1

[5] = tested on: Staphylococcus aureus 491; assay: Standard broth micro-dilution MIC, Staphylococcus aureus 491; format: cell-based
Method: as §1

[6] = tested on: Staphylococcus haemolyticus 105; assay: Standard broth micro-dilution MIC, Staphylococcus haemolyticus 105; format: cell-based
Method: as §1

[7] = tested on: Staphylococcus aureus SA1199A; assay: Standard broth micro-dilution MIC, Staphylococcus aureus SA1199A; format: cell-based
Method: as §1

[8] = tested on: vancomycin-resistant enterococci; assay: In Vitro Activity Against Enterococci, vancomycin-resistant strains; format: cell-based; conditions: representative vancomycin-resistant enterococci (Enterococcus faecium and Enterococcus faecalis)
Method: as §1

[9] = tested on: Staphylococcus aureus S13E; format: cell-based
Method: as §1

[10] = tested on: vancomycin-sensitive enterococci; assay: In Vitro Activity Against Enterococci, vancomycin-sensitive strains; format: cell-based, Enterococcus faecium and Enterococcus faecalis; conditions: for mean geometric MIC, Vancomycin Sensitive Strains: representative vancomycin-sensitive enterococci (Enterococcus faecium and Enterococcus faecalis)
Method: as §1

[11] = tested on: Enterococcus gallinarum 245; assay: Standard broth micro-dilution MIC, Enterococcus gallinarum 245; format: cell-based
Method: as §1

[12] = tested on: Enterococcus faecalis 2041; assay: Standard broth micro-dilution MIC, Enterococcus faecalis 2041; format: cell-based
Method: as §1

[13] = tested on: Streptococcus pneumoniae P1; assay: Standard broth micro-dilution MIC, Streptococcus pneumoniae P1; format: cell-based
Method: as §1

[14] = tested on: Staphylococcus aureus 489; assay: Standard broth micro-dilution MIC, Staphylococcus aureus 489; format: cell-based
Method: as §1

[15] = tested on: Staphylococcus haemolyticus 415; assay: Standard broth micro-dilution MIC, Staphylococcus haemolyticus 415; format: cell-based
Method: as §1

[16] = tested on: Staphylococcus aureus X778; assay: Standard broth micro-dilution MIC, Staphylococcus aureus X778; format: cell-based
Method: as §1

[17] = tested on: Enterococcus faecalis 276; assay: Standard broth micro-dilution MIC, Enterococcus faecalis 276; format: cell-based
Method: as §1

[18] = tested on: Staphylococcus aureus 446; assay: Standard broth micro-dilution MIC, Staphylococcus aureus 446; format: cell-based
Method: as §1

[19] = tested on: Staphylococcus aureus SA1199; assay: Standard broth micro-dilution MIC, Staphylococcus aureus SA1199; format: cell-based
Method: as §1

[20] = tested on: Staphylococcus epidermidis 270; assay: Standard broth micro-dilution MIC, Staphylococcus epidermidis 270; format: cell-based
Method: as §1

Enterococcus faecium 180 = assay: Standard broth micro-dilution MIC, Enterococcus faecium 180; format: cell-based
Method: as §1

[21] = tested on: Enterococcus faecium 180-1; assay: Standard broth micro-dilution MIC, Enterococcus faecium 180-1; format: cell-based
Method: as §1

Escherichia coli EC14 = assay: Standard broth micro-dilution MIC, Escherichia coli EC14; format: cell-based
Method: as §1

Molecule	MIC [2] [µg/mL]	MIC [3] [µg/mL]	MIC [4] [µg/mL]	MIC [5] [µg/mL]	MIC [6] [µg/mL]	MIC [7] [µg/mL]	mean geometric MIC, Vancomycin Resistant Strains [8] [µg/mL]	MIC [9] [µg/mL]	mean geometric MIC, Vancomycin Sensitive Strains [10] [µg/mL]	MIC [11] [µg/mL]	MIC [12] [µg/mL]	MIC [13] [µg/mL]	MIC [14] [µg/mL]	MIC [15] [µg/mL]	MIC [16] [µg/mL]	MIC [17] [µg/mL]	MIC [18] [µg/mL]	MIC [19] [µg/mL]	MIC [20] [µg/mL]	MIC (Enterococcus faecium 180) [µg/mL]	further results
1,3-phenylene-bis-[(oxy-1,3-n-propyleneoxy-4,1-phenylene)]-methylene]-bis-[vancomycin] [Compound 12]	4	0.06	8	2	4	1	4.0	4	0.66	0.06	0.25	0.06	2	4	2	1	8	4	4	≤ 0.06	MIC [1]: 2 µg/mL
1,3-phenylenebis[oxy-1,3-n-propylene-oxy-4,1-phenylene)methylene]bis-[A82846B,(3-dimethylaminopropyl)-amide] [Compound 71]	2	0.5	4	2	2	2	2.4	2	0.38	0.5	0.5	0.5	2	2	2	1	4	4	1	2	MIC [1]: 4 µg/mL; MIC [21]: 0.5 µg/mL
5-n-pentyl-1,3-phenylene-bis[(oxy-1,3-n-propyleneoxy-4,1-phenylene)methylene]-bis-[vancomycin] [Compound 61]	16	1	16	2	1	1	2	16	1.2	1	2	2	4	8	4	2	8	8	4	1	MIC [1]: 8 µg/mL; MIC [21]: 0.5 µg/mL
CN[C@H](CC(C)C)C(=O)N[C@H]1C(=O)N[C@@H](CC(N)=O)C(=O)N[C@H]2C(=O)N[C@H]3C(=O)N[C@H](C(=O)N[C@H](C(=O)O)c4cc(O)cc(O)c4-c4cc3ccc4O)[C@H](O[C@H]3C[C@](C)(N)[C@@H](O)[C@H](C)O3)c3ccc(c(Cl)c3)Oc3cc2cc(c3O[C@@H]2O[C@H](CO)[C@@H](O)[C@H](O)[C@H]2O[C@H]2C[C@](C)(N)[C@@H](O)[C@H](C)O2)Oc2ccc(cc2Cl)[C@H]1O [Compound A82846B, A82846B, reference compound]	–	–	–	–	–	≤ 0.06	29	–	0.22	–	–	–	≤ 0.06	–	–	–	–	–	–	8 (≈ 5.02 µM)	–
CN[C@H](CC(C)C)C(=O)N[C@H]1C(=O)N[C@@H](CC(N)=O)C(=O)N[C@H]2C(=O)N[C@H]3C(=O)N[C@H](C(=O)N[C@H](C(=O)O)c4cc(O)cc(O)c4-c4cc3ccc4O)[C@H](O)c3ccc(c(Cl)c3)Oc3cc2cc(c3O[C@@H]2O[C@H](CO)[C@@H](O)[C@H](O)[C@H]2O[C@H]2C[C@](C)(N)[C@H](O)[C@H](C)O2)Oc2ccc(cc2Cl)[C@H]1O [Vancomycin, reference compound]	–	–	–	–	–	–	–	–	–	–	2 (≈ 1.38 µM)	–	–	–	–	1 (≈ 0.69 µM)	–	–	–	> 64	MIC ([10]; read-out: mean geometric MIC, Vancomycin Sensitive Strains): 3.9 µg/mL (≈ 2.69 µM)
N^4 -(4(3-(3-(3-(p-formylphenoxy)-n-propyloxy)phenoxy)-n-propyloxy)-benzyl)vancomycin [Compound 52]	–	–	–	–	–	–	4.8	–	0.093	–	–	–	–	–	–	–	–	–	–	–	–
N^4 -(4-(3-(3-(3-(p-formylphenoxy)-n-propoxy)-5-phenylphenoxy)-n-propoxy)benzyl)vancomycin [Compound 45]	0.5	0.06	1	0.5	0.5	≤ 0.06	2.8	0.5	0.33	0.5	0.125	0.06	2	2	0.5	0.25	1	0.5	1	0.5	MIC [1]: 0.5 µg/mL; MIC (Escherichia coli EC14): > 64 µg/mL
N^4 -(4-(3-(p-formylphenoxy)-n-propyloxy)benzyl)A82846B [Compound 46]	1	≤ 0.06	2	0.5	2	0.125	4.8	0.5	0.17	4	≤ 0.06	≤ 0.06	0.5	4	0.5	1	1	1	2	0.5	MIC [1]: 1 µg/mL; MIC [21]: ≤ 0.06 µg/mL; MIC (Escherichia coli EC14): > 64 µg/mL
N^4 -(4-(3-(p-formylphenoxy)-n-propyloxy)benzyl)vancomycin [Compound 34]	≤ 0.06	0.06	≤ 0.06	≤ 0.06	0.5	≤ 0.06	53	≤ 0.06	0.87	1	≤ 0.06	0.06	≤ 0.06	2	≤ 0.06	≤ 0.06	≤ 0.06	≤ 0.06	0.25	0.5	MIC [1]: ≤ 0.06 µg/mL; MIC [21]: ≤ 0.06 µg/mL
N^4 -(4-(8-(p-formylphenoxy)-n-octyloxy)benzyl)vancomycin [Compound 40]	1	0.06	0.25	≤ 0.06	1	≤ 0.06	11.3	0.25	0.19	1	0.125	0.06	–	4	≤ 0.06	0.25	0.5	0.25	0.25	1	MIC [21]: ≤ 0.06 µg/mL; MIC (Escherichia coli EC14): > 64 µg/mL
N^4 -(4-(12-(p-formylphenoxy)-n-dodecyloxy)benzyl)vancomycin [Compound 42]	4	0.25	4	2	2	1	4.5	4	1.1	1	2	1	2	8	1	4	2	2	4	0.5	MIC [1]: 2 µg/mL; MIC [21]: 1 µg/mL; MIC (Escherichia coli EC14): > 64 µg/mL
